Data on one molecule can be found in patent US20190262266A1, “FORMULATIONS” (OXY SOLUTIONS AS, priority 2016, published 2019).

“Also recorded” adds a separate entry of the source. Read-outs that look alike come from different tables or passages of the source.

Data set [1] deals with human skin fibroblasts. As to the kind of experiment: Reactive oxygen species (ROS) production in human skin fibroblasts (DCFDA). To be noted: 30 min; for ROS, relative fluorescence (×10^3): 5% FBS; for ROS production compared to control: DO 21-35 mg/L, 5% FBS (5% or 10% FBS), control 8.6 mg/L. The protocol: (§1) Oxygenated medium was prepared using powder cell medium, diluted with Oxy Water prepared according to Example 5. The mixing ratio depended on the desired concentration of dissolved oxygen in the final cell medium. DMEM or DMEM medium without phenol red was used (Sigma Aldrich). The medium was supplied with additives and FBS. The phenol red free cell medium was used for the ROS experiment to avoid disturbance of the fluorescent readings.
HSFs were seeded at a density of 2.5×10^4 cells/0.32 cm^2 and were grown to confluence overnight. The cells were stained with 20 uM DCFDA solution (2′,7′-dichlorofluorescin diacetate) (DCFDA Cellular ROS Detection Assay Kit, Abcam, Cambridge, UK) and incubated for 45 min at 37° C. protected from light exposure. Control cell medium (5% FBS, dissolved oxygen: 8.6 mg/L), oxygenated cell medium (5% FBS, dissolved oxygen: 21.6, 26.5, 34.9 mg/L) and positive control (500 μM H2O2, 5% FBS, dissolved oxygen: 8.6 mg/L) were added. The cells were incubated at room temperature. The fluorescence was read with an FLx800 plate reader (BioTek, Winooski, USA) with excitation wavelength at 485 nm and emission wavelength 520 nm, 30 min after adding the treatments. The values were corrected for blank readings and presented as relative fluorescence (×10^3). The experiments were repeated using 10% FBS.

In data set [2] the test system is human skin fibroblasts. To be noted: DO up to 50 mg/L, DMEM w/1% FBS, control 11 mg/L; for cell viability / number of dead cells compared to control: 4 days; for proliferation compared to control: up to 4 days. Here is the method: as §1
HSFs were seeded at a density of 5×10^4 cells/25 cm^2 and left overnight. The cells were treated with control cell medium (1% FBS, dissolved oxygen: 11 mg/L), oxygenated cell medium (1% FBS, dissolved oxygen: 23, 31, 41, 50 mg/L), or 10% FBS, dissolved oxygen: 10 mg/L. After stimulation, the cells were left at room temperature for 30 min, followed by incubation at 37° C. The treatment was repeated every 24 hours up to 4 days. On day 2, 3 and 4 the cells were harvested; the cell suspension was mixed with trypan blue and live cells were manually counted using a hemocytometer and dead cells were counted using a TC20 Automated cell counter (BioRad, USA). 1% Triton X was used as a positive control for cell death.

The test system of data set [3] is human skin fibroblasts. Here is the method:
as §1

Consider `O=O` [dissolved oxygen], for which the “ROS, relative fluorescence (×10^3)” value came to 9.3±3.4 in the data set on human skin fibroblasts [1] (21.6 mg/L dissolved oxygen), 15.2±4.5 in the data set on human skin fibroblasts [1] (26.5 mg/L dissolved oxygen) and 8.9±2.9 with human skin fibroblasts [1] (34.9 mg/L dissolved oxygen). Besides, the “ROS production compared to control” value with human skin fibroblasts [1] is “did not significantly change; also recorded: no significant increase”; in the data set with human skin fibroblasts [1] (listed as DO), “no significant differences”. Besides, the “cell viability / number of dead cells compared to control” value is reported as “nor did it change the level of cell viability” in the data set on human skin fibroblasts [2] and “did not significantly alter the number of dead cells” with human skin fibroblasts [2] (listed as DO). Moreover, the “proliferation compared to control” value with human skin fibroblasts [2] was “did not change cell proliferation”; in the data set with human skin fibroblasts [2] (listed as DO), “did not significantly alter the proliferation rate”. The same molecule came in with an ATP levels in the data set on human skin fibroblasts [3] (33 mg/L DO, DMEM w/10% FBS, 4 h, re-stimulated at 1, 2 and 3 hours) of 113.1 nm ATP/10^5 cells. Moreover, the “levels of ATP” value with human skin fibroblasts [3] (33 mg/L dissolved oxygen, four hourly stimulations) worked out at 113.1±10.1 nM ATP/10^5 live cells.
